Results from ChEMBL document CHEMBL1201862, “PubChem BioAssay data set” (2004).
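Tested at 5 concentrations; 48 h exposure; 96-well plates; endpoints linearly interpolated, else capped at highest concentration. GI50 = concentration required for 50% inhibition of growth.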 The source made the active and inactive calls. Cut-off read from the data, not from the text of the source: active = GI50 up to about 1.1 µM and inactive = higher.

Tests used:
Experiment in all cases: NCI tumour cell line growth inhibition, 48 h
SW-620 = system: SW-620
NCI-H23 = system: NCI-H23
SK-MEL-28 = system: SK-MEL-28
OVCAR-5 = system: OVCAR-5
HT-29 = system: HT-29
HOP-62 = system: HOP-62
EKVX = system: EKVX
NCI-H522 = system: NCI-H522
DU-145 = system: DU-145
UO-31 = system: UO-31
A498 = system: A498
K562 = system: K562
PC-3 = system: PC-3
HCT-116 = system: HCT-116
TK-10 = system: TK-10
UACC-62 = system: UACC-62
MDA-MB-435 = system: MDA-MB-435
SNB-75 = system: SNB-75

Measured: GI50

CC1=C(C(=O)OCCO[N+](=O)[O-])C(c2ccccc2C(F)(F)F)C(C(=O)OC(C)C)=C(C)N1 (centres undefined)
inactive: SW-620 30.1 µM | NCI-H23 19.6 µM | SK-MEL-28 16.6 µM | OVCAR-5 14.8 µM | HT-29 14.2 µM | HOP-62 20.6 µM | EKVX 24.6 µM | NCI-H522 16.9 µM | DU-145 39.4 µM | UO-31 11.3 µM | A498 24.1 µM | K562 3.94 µM | PC-3 3.36 µM | HCT-116 9.84 µM | TK-10 18.1 µM | UACC-62 19.3 µM | MDA-MB-435 16.6 µM

CCN(CC)CCSc1nc2cccc([N+](=O)[O-])c2[nH]1
inactive: SW-620 > 100 µM | NCI-H23 > 100 µM | SK-MEL-28 > 100 µM | HT-29 > 100 µM | EKVX > 100 µM | NCI-H522 > 100 µM | SNB-75 > 100 µM | K562 > 100 µM | TK-10 > 100 µM | UACC-62 > 100 µM

CCCCN(CCCC)C1=Nc2ccccc2-n2c(nnc2C(=O)OCC)C1
inactive: SW-620 58.3 µM | NCI-H23 74.6 µM | SK-MEL-28 82.2 µM | OVCAR-5 > 100 µM | HT-29 22 µM | HOP-62 95.1 µM | EKVX 71.9 µM | NCI-H522 > 100 µM | SNB-75 33.1 µM | DU-145 75.3 µM | UO-31 31.8 µM | K562 16.5 µM | PC-3 17.4 µM | HCT-116 27.4 µM | TK-10 38.7 µM | UACC-62 47.2 µM | MDA-MB-435 38.5 µM

Fc1ccc(C(OCCN2CC3CC2CN3)c2ccc(F)cc2)cc1 (centres undefined)
inactive: SW-620 > 100 µM | NCI-H23 > 100 µM | SK-MEL-28 21.8 µM | HOP-62 > 100 µM | NCI-H522 47.3 µM | SNB-75 66.4 µM | DU-145 > 100 µM | A498 44.9 µM | K562 36 µM | PC-3 59.2 µM | TK-10 32.8 µM | UACC-62 19.5 µM | MDA-MB-435 23.1 µM

CNC(C)C(O)c1ccc2oc3cc(=O)c4ccccc4c-3nc2c1 (centres undefined)
inactive: SW-620 6.35 µM | NCI-H23 4.3 µM | SK-MEL-28 11.5 µM | OVCAR-5 32.5 µM | HT-29 36.3 µM | HOP-62 5.82 µM | EKVX 40 µM | NCI-H522 13.3 µM | DU-145 5.31 µM | UO-31 13.8 µM | A498 24 µM | K562 2.72 µM | PC-3 32.6 µM | HCT-116 5.24 µM | TK-10 38.7 µM | UACC-62 3.82 µM | MDA-MB-435 1.97 µM
